Reference: PMC9233675, “Ru(II) photocages enable precise control over enzyme activity with red light” (Nature Communications, 2022)
“And” between values parts separate entries of the source, which are not always exact repeats. Equal values may be shown once. Read-outs that look alike come from different tables or passages of the source.

Assays:
CYP19A1 [1] = tested on: CYP19A1; parameters: method as in PMID 9152599; conditions: cited from earlier work
[2] = mouse, microsomes
[3] = rat, microsomes
[4] = human, microsomes
[5] = Stability of compounds in rat liver microsomes
[6] = Stability of compounds in mouse liver microsomes
[7] = Stability of compounds in human liver microsomes; conditions: for Remaining, % (T=60min): human, liver microsomes
[8] = Irradiation-induced 1O2 production (Singlet Oxygen Sensor Green assay); assay type: physicochemical; conditions: sheet S27; triplicate columns; DMSO control about 0.9
From the text: Some Ru(II) complexes can generate singlet oxygen when photoexcited, a feature that has been applied to the selective photoinactivation of proteins. In this approach, the Ru(II) system is conjugated to a peptide that is a specific ligand for the protein target; binding of the peptide to the protein ensures close proximity of the Ru(II) center and thus, upon photoexcitation, the generation of a high local concentration of singlet oxygen. […] As very little of this reactive oxygen species was generated, inactivation of the CYP enzymes by this process appears unlikely.
Supplementary Figure 27. Determination of irradiation-induced 1O2 production with 660 nm light (1 hr = 58.7 J/cm2)
using the Singlet Oxygen Sensor Green assay. […]

[9] = parameters: method as in Scifinder; conditions: ref Scifinder; cited from earlier work
fungal CYP51 = conditions: read-out: Kd fungal CYP51; cited from earlier work
human isoform of CYP51 = target: human isoform of CYP51; parameters: method as in PMID 23826084; conditions: cited from earlier work
CYP3A4 = tested on: CYP3A4; parameters: method as in PMID 23018626; conditions: cited from earlier work
CYP19A1 [10] = target: T1, CYP19A1 (Homo sapiens, UniProt P11511); experiment: In cell activity assay for CYP19A1 (dibenzylfluorescein conversion, HEK293 T-Rex cells); assay type: cell-based; conditions: concentrations up to 30 μM, in the dark and following irradiation to form 7
T1 sequence (P11511 1-503): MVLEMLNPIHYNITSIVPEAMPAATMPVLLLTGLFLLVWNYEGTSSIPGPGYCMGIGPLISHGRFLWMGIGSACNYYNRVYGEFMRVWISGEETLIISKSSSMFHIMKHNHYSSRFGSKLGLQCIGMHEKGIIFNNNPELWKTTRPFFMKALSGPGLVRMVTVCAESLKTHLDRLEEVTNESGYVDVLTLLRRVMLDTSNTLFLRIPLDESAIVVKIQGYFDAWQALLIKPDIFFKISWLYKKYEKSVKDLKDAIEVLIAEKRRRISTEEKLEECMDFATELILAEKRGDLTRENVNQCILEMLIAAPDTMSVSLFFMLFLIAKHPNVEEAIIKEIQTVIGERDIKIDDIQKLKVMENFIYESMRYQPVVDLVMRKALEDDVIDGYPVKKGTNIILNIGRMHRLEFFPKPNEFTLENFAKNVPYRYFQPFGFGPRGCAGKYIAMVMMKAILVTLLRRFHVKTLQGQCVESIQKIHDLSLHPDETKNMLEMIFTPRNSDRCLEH
Method: Thus, the activity against CYP19A1 was evaluated using a recently developed in-cell fluorometric assay.
REE or DBF was added as described above.

[11] = Stability of complexes at 37 °C in the dark (HPLC, UV/Vis); assay type: physicochemical
Method: The stability of each complex was assessed over 24 h under aqueous conditions at 37 °C (Supplementary Figs. 12–15). […] Given the potency of the caged inhibitor, thermal stability is of critical importance, making complex 6 the preferred photocaged candidate.
Opti-MEM with 2% fetal bovine serum (right) at 37 °C in the dark over the course of 0 (blue line) to 24 h (black dashed line). Compounds were tested in triplicate (n = 3), the data for one replicate are presented. Complexes 4 and 5 slowly degraded in the experiment condition (see HPLC traces, Figures S13–14). The decrease in absorbance for complex 6 is explained by the slow aggregation of the compound in the 96-well plate.
(1 picture or pasted object on this page, not shown here)
Supplementary Figure 13. a HPLC chromatogram analysis of stability of 4 (50 µM in di-H2O) before (black dashed line, purity > 92 % ) and after incubation at 37 °C for 24 hours (red line). At 24 hours, 43 % of 4 was […]
Supplementary Figure 14. HPLC chromatogram analysis of stability of 5 (50 µM in di-H2O) before (black dashed line, purity > 97 %) and after incubation at 37 °C for 24 hours (red line). At 24 hours, 50 % of 5 was observed […]
Supplementary Figure 15. HPLC chromatogram analysis of stability of 6 (40 µM in di-H O : MeCN mixture (4:1), […]
MeCN was added to reduce the aggregation) before (black dashed line, purity > 99.5 %) and after incubation at 37 °C for 24 hours. At 24 hours, less than 2 % degradation was observed (calculated by area, detection wavelength = […]
Supplementary Figure 16. HPLC chromatogram analysis of stability of 6 (40 µM) in 5 % DMSO / di-H2O with a 100 μM GSH, b 100 μM imidazole and c acidic condition (pH = 1) after incubation at 37 °C for 72 hours. Less than […]
detection wavelength = 280 nm). […]
imidazole and c acidic condition (pH = 1) after incubation at 37 °C for 72 hours. d At 72 hours less than 7 % degradation was observed by HPLC at pH = 1 (calculated by area, detection wavelength = 280 nm). Compounds were tested in triplicate (n = 3), the data for one replicate are presented.

HEK293 T-Rex cell line = experiment: Cellular viability (resazurin to resorufin, 72 h); assay type: cell-based, human; conditions: Supplementary Fig. 24d
Method: The cells were >70% viable at 72 h with 10 μM compound, as quantified by metabolically active cells determined by the conversion of resazurin to resorufin (Supplementary Figs. 18–20).
The parental HEK T-Rex cell line was maintained as above, in the absence of Zeocin. Compounds were serially diluted in media, and the cells were dosed from 0–30 μM compound, and then incubated at 37 °C (n = 3). […] The cells were incubated with the compound in the dark for 30 min prior to light exposure, using the same parameters as in the enzyme activity assay, and then treated as above.

For CC(C)(C#N)c1cc(Cn2cncn2)cc(C(C)(C)C#N)c1 [Anastrozole, anastrozole], the “selectivity for CYP19A1 over liver CYPs” value (CYP19A1 [1]) is given as “at least 500 fold”.
For COc1ccc(/C=C/c2cc[n+]([Os-4]34([Cl])([n+]5ccccc5-c5cccc[n+]53)[n+]3ccccc3-c3cccc[n+]34)cn2)c(OC)c1.[Cl-] [[Os(bpy)2(2)Cl]Cl], the “CLint(mic)” value [2] was less than 9.6 µL/min/mg, the T1/2 [2] was greater than 2.42 h and the “Remaining, % (NCF=60min)” value ([2]; 1 h) was 75.9%. The “Remaining, % (T=60min)” value ([2]; 1 h) was 71.8%, the “CLint(mic)” value [3] was 16.9 µL/min/mg and the T1/2 [3] was 1.36 h. The “Remaining, % (NCF=60min)” value ([3]; 1 h) was 91.8%, the “Remaining, % (T=60min)” value ([3]; 1 h) was 56.5% and the “CLint(mic)” value [4] was less than 9.6 µL/min/mg. For the same molecule, the T1/2 [4] was greater than 2.42 h, the “Remaining, % (NCF=60min)” value ([4]; 1 h) was 107% and the “Remaining, % (T=60min)” value ([4]; 1 h) was 78.4%.
In the case of C[C@]12CC[C@H]3[C@@H](CCC4=CC(=O)CC[C@@]43C)[C@@H]1CC[C@@H]2O [Testosterone, reference compound], the “Remaining, % (NCF=60min)” value ([5]; rat liver microsomes, no co-factor (no NADPH)) is reported as 86.5%, the “Remaining, % (T=60min)” value ([5]; rat, liver microsomes) is reported as 0.8% and the “Remaining, % (NCF=60min)” value ([6]; mouse liver microsomes, no co-factor (no NADPH)) is reported as 91.3%. For the same molecule, the “Remaining, % (T=60min)” value ([6]; mouse, liver microsomes) was 2.3%, the “Remaining, % (NCF=60min)” value ([7]; human liver microsomes, no co-factor (no NADPH)) was 82.5% and the “Remaining, % (T=60min)” value [7] was 3.6%.
In the case of O=C(O)Cc1ccccc1Nc1c(Cl)cccc1Cl [Diclofenac, reference compound], the “Remaining, % (T=60min)” value [7] is reported as 0.0%.
In the case of [Ru+2].c1ccc(-c2ccccn2)nc1.c1ccc(-c2ccccn2)nc1.c1ccc(-c2ccccn2)nc1 [Ru(bpy)3, reference compound], the “irradiation-induced 1O2 production (Singlet Oxygen Sensor Green signal, relative)” value [8] is reported as 4.994 and 4.917 and 5.133.
In the case of Cc1ccncn1 [methyl pyrimidine], the pKa [9] is listed as 2.0.
In the case of CC(=O)N1CCN(c2ccc(OCC3COC(Cn4ccnc4)(c4ccc(Cl)cc4Cl)O3)cc2)CC1 (centres unmarked) [Ketoconazole, ketoconazole], the Kd (fungal CYP51) is given as 0.027 µM, the Kd (human isoform of CYP51) is given as 0.042 µM and the IC50 (CYP3A4) is given as […].
In the case of O=C([O-])c1cc2[n+](c3ccccc13)[Ru-4]13([n+]4ccccc4)([n+]4ccccc4-c4cccc([n+]41)-c1cccc[n+]13)[n+]1c-2cc(C(=O)[O-])c2ccccc21 [Compound 8, [Ru(tpy)(bca)(pyridine)]], the “impact on any CYP (CYP19A1)” value (CYP19A1 [10]) is reported as “no impact”, the “degradation at pH = 1” value ([11]; 5 % DMSO / di-H2O, acidic condition (pH = 1), 37 °C, 72 hours) is reported as “less than 7%” and the “degradation over 72 h” value ([11]; Supplementary Fig. 17) is reported as less than 7%. The “irradiation-induced 1O2 production (Singlet Oxygen Sensor Green signal, relative)” value [8] was 1.034 and 0.94 and 1.135 and the “effect on cell health” value (HEK293 T-Rex cell line) was “no effect”.
With CCCCCCOC(C)c1c(C)c2cc3nc(c4c5[nH]c(cc6nc(cc1[nH]2)C(C)=C6CC)c(C)c5C(=O)C4)[C@@H](CCC(=O)O)[C@@H]3C (some centres unmarked) [HPPH, reference compound] the “irradiation-induced 1O2 production (Singlet Oxygen Sensor Green signal, relative)” value [8] was 4.8266 and 4.787 and 4.883.
For Cc1ccncc1 [methyl pyridine], the pKa [9] is listed as 5.9.
